Holding throughout (assay type): cell-based, mouse
In assay [1] the test system is α7 integrin (LacZ reporter in α7βgal+/− myoblasts). The assay is described as follows: Myoblast α7+/LacZ integrin FDG assay (Burkin assay in myoblasts, 96-well). As to conditions: α7+/LacZ myoblasts, 96-well.
Assay [2] has as its system α7 integrin (LacZ reporter in α7+/LacZ myotubes). Description: Myotube α7 integrin FDG assay (Burkin assay in myotubes, 96-well). As to conditions: myotubes.
Assay [3] relates to β-galactosidase in CMV-LacZ C2C12 myotubes. The assay is described as follows: CMV-LacZ secondary screen in C2C12 myotubes (β-Gal stabilizing assay). To be noted: for CMV-LACZ in Myotubes (β-galactosidase activity relative to DMSO): CMV-LacZ C2C12 myotubes, 96-well format. In short, it runs like this: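 Stable CMV-LacZ C2C12 clone; six-point curve 0.5–40 μM; duplicates.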
Setting [4] is: 5 uM, C2C12 CMV-LacZ myotubes, fold relative to DMSO.
[5] abbreviates: 10 uM, C2C12 CMV-LacZ myotubes, fold relative to DMSO.
Where [6] appears, read: 20 uM, C2C12 CMV-LacZ myotubes, fold relative to DMSO.
[7] abbreviates: 40 uM, C2C12 CMV-LacZ myotubes, fold relative to DMSO.

Results on 7 compounds are retold here after patent US9980943B2, “Methods of treating muscular dystrophy” (BOARD OF REGENTS OF THE NEVADA SYSTEM OF HIGHER EDUCATION, …, priority 2013, dated 2018).

In the case of `CC(Oc1ccccc1)C(=O)N1CCN(C(=O)C(C)Oc2ccccc2)CC1` (stereo not shown) [MLS001162337-01], the “Burkin Assay in Myoblasts, value relative to DMSO” value in assay [1] (0.5 uM) is 1.123; in assay [1] (1 uM), 1.127; in assay [1] (5 uM), 1.091; in assay [1] (10 uM) it was 1.071; in assay [1] (20 uM), 0.8789; in assay [1] (40 uM), 0.8149. Moreover, the “Burkin Assay in Myotubes (signal relative to DMSO)” value in assay [2] (0.5 uM) worked out at 0.6986; in assay [2] (1 uM), 0.885; in assay [2] (5 uM) it was 1.009; in assay [2] (10 uM), 0.9738; in assay [2] (20 uM), 1.17; in assay [2] (40 uM) it was 1.014. The “CMV-LACZ in Myotubes, signal relative to DMSO” value in assay [3] (setting [4]) was 0.9904; in assay [3] (setting [5]), 0.9593; in assay [3] (setting [6]) it was 0.8491; in assay [3] (setting [7]), 1.05.
On to `O=C(CSc1nnc(C2CC2)n1C1CC1)c1cccs1` [MLS002161757-01], for which the “Burkin Assay in Myoblasts, value relative to DMSO” value is given as 0.9614 in assay [1] (0.5 uM); 0.892 in assay [1] (1 uM); 0.9113 in assay [1] (5 uM); 0.9135 in assay [1] (10 uM); 1.009 in assay [1] (20 uM); 1.151 in assay [1] (40 uM). In addition, the “Burkin Assay in Myotubes (signal relative to DMSO)” value in assay [2] (0.5 uM) is on record as 0.8459; in assay [2] (1 uM), 1.07; in assay [2] (5 uM) it was 1.092; in assay [2] (10 uM), 1.06; in assay [2] (20 uM), 0.9795; in assay [2] (40 uM), 1.146. The “CMV-LACZ in Myotubes (β-galactosidase activity relative to DMSO)” value in assay [3] (5 uM) came out at 0.919; in assay [3] (10 uM) it was 1.102; in assay [3] (20 uM), 1.153; in assay [3] (40 uM), 1.256.
Take `COc1ccc(Nc2ncnc3ccc(C)cc23)cc1` [MLS001212498-01]: the fold induction at 0.5 µM in assay [1] (Mus musculus, Myoblast, 48 h, 0.5 uM, read-out: Burkin Assay in Myoblasts, signal relative to DMSO) turned out to be 1.05; in assay [2] (Mus musculus, Myotube, 0.5 uM, read-out: Burkin Assay in Myotubes, α7 integrin LacZ reporter signal relative to DMSO), 0.941. For the same compound, the fold induction at 1 µM in assay [1] (Mus musculus, Myoblast, 48 h, 1 uM, read-out: Burkin Assay in Myoblasts, signal relative to DMSO) came to 1.2; in assay [2] (Mus musculus, Myotube, 1 uM, read-out: Burkin Assay in Myotubes, α7 integrin LacZ reporter signal relative to DMSO), 1.12. The fold induction at 5 µM in assay [1] (Mus musculus, Myoblast, 48 h, 5 uM, read-out: Burkin Assay in Myoblasts, signal relative to DMSO) is 1.18; in assay [2] (Mus musculus, Myotube, 5 uM, read-out: Burkin Assay in Myotubes, α7 integrin LacZ reporter signal relative to DMSO) it was 1.11; in assay [3] (Mus musculus, C2C12, read-out: CMV-LACZ in Myotubes, signal relative to DMSO, 5 uM, C2C12 CMV-LacZ myotubes, fold relative to DMSO), 0.85. Besides, the fold induction at 10 µM was determined as 1.31 in assay [1] (Mus musculus, Myoblast, 48 h, 10 uM, read-out: Burkin Assay in Myoblasts, signal relative to DMSO); 1.34 in assay [2] (Mus musculus, Myotube, 10 uM, read-out: Burkin Assay in Myotubes, α7 integrin LacZ reporter signal relative to DMSO); 0.784 in assay [3] (Mus musculus, C2C12, read-out: CMV-LACZ in Myotubes, signal relative to DMSO, 10 uM, C2C12 CMV-LacZ myotubes, fold relative to DMSO). Besides, the fold induction at 20 µM stood at 1.29 in assay [1] (Mus musculus, Myoblast, 48 h, 20 uM, read-out: Burkin Assay in Myoblasts, signal relative to DMSO); 1.16 in assay [2] (Mus musculus, Myotube, 20 uM, read-out: Burkin Assay in Myotubes, α7 integrin LacZ reporter signal relative to DMSO); 0.749 in assay [3] (Mus musculus, C2C12, read-out: CMV-LACZ in Myotubes, signal relative to DMSO, 20 uM, C2C12 CMV-LacZ myotubes, fold relative to DMSO). Further, the fold induction at 40 µM came to 1.4 in assay [1] (Mus musculus, Myoblast, 48 h, 40 uM, read-out: Burkin Assay in Myoblasts, signal relative to DMSO); 1.16 in assay [2] (Mus musculus, Myotube, 40 uM, read-out: Burkin Assay in Myotubes, α7 integrin LacZ reporter signal relative to DMSO); 0.848 in assay [3] (Mus musculus, C2C12, read-out: CMV-LACZ in Myotubes, signal relative to DMSO, 40 uM, C2C12 CMV-LacZ myotubes, fold relative to DMSO).
For `Cc1ccc(-c2onc3ccc(C(=O)/C=C/N(C)C)cc23)cc1` [MLS001166156-01], the “Burkin Assay in Myoblasts, value relative to DMSO” value came to 0.8005 in assay [1] (0.5 uM); 0.9085 in assay [1] (1 uM); 0.7543 in assay [1] (5 uM); 0.7601 in assay [1] (10 uM); 0.7571 in assay [1] (20 uM); 0.3481 in assay [1] (40 uM). In addition, the “Burkin Assay in Myotubes (signal relative to DMSO)” value is given as 1.001 in assay [2] (0.5 uM); 0.8521 in assay [2] (1 uM); 1.07 in assay [2] (5 uM); 0.7592 in assay [2] (10 uM); 0.8218 in assay [2] (20 uM); 0.4461 in assay [2] (40 uM). The “CMV-LACZ in Myotubes (β-galactosidase activity relative to DMSO)” value in assay [3] (5 uM) is given as 0.8707; in assay [3] (10 uM) it was 0.9198; in assay [3] (20 uM) it was 0.7796; in assay [3] (40 uM), 0.5227.
As to `COC(=O)c1ccc(C2C(C(=O)c3cc4ccccc4o3)=C(O)C(=O)N2CCN2CCOCC2)cc1` (stereo not shown) [MLS001146463-01], the “Burkin Assay in Myoblasts, value relative to DMSO” value in assay [1] (0.5 uM) worked out at 1.026; in assay [1] (1 uM) it was 0.9781; in assay [1] (5 uM), 0.9027; in assay [1] (10 uM), 0.9293; in assay [1] (20 uM), 0.7318; in assay [1] (40 uM) it was 0.8061. In addition, the “Burkin Assay in Myotubes (signal relative to DMSO)” value in assay [2] (0.5 uM) is reported as 0.8827; in assay [2] (1 uM), 0.8032; in assay [2] (5 uM) it was 1.216; in assay [2] (10 uM), 0.7514; in assay [2] (20 uM) it was 0.8465; in assay [2] (40 uM), 0.8424. The “CMV-LACZ in Myotubes, signal relative to DMSO” value in assay [3] (setting [4]) amounted to 1.074; in assay [3] (setting [5]), 0.9392; in assay [3] (setting [6]), 1.06; in assay [3] (setting [7]), 1.141.
For `CCOc1ccc(S(=O)(=O)NCCC(=O)NCC(c2cccs2)N2CCOCC2)cc1` (stereo not shown) [MLS001080869-01], the “Burkin Assay in Myoblasts, value relative to DMSO” value in assay [1] (0.5 uM) is reported as 1.144; in assay [1] (1 uM), 1.036; in assay [1] (5 uM), 1.147; in assay [1] (10 uM) it was 0.9857; in assay [1] (20 uM) it was 0.973; in assay [1] (40 uM), 0.8485. Moreover, the “Burkin Assay in Myotubes (signal relative to DMSO)” value is reported as 1.011 in assay [2] (0.5 uM); 0.9574 in assay [2] (1 uM); 0.974 in assay [2] (5 uM); 0.9257 in assay [2] (10 uM); 0.9862 in assay [2] (20 uM); 0.9802 in assay [2] (40 uM). The “CMV-LACZ in Myotubes (β-galactosidase activity relative to DMSO)” value in assay [3] (5 uM) is 0.9349; in assay [3] (10 uM), 0.9153; in assay [3] (20 uM) it was 0.9927; in assay [3] (40 uM) it was 1.01.
`CC1CCCCC12NC(=O)N(CC(=O)OCc1cccc(F)c1)C2=O` (stereo not shown) [MLS002161350-01]: the “Burkin Assay in Myoblasts, signal relative to DMSO” value worked out at 0.9404 in assay [1] (0.5 uM); 0.9236 in assay [1] (1 uM); 0.9531 in assay [1] (5 uM); 0.9514 in assay [1] (10 uM); 0.822 in assay [1] (20 uM); 0.8262 in assay [1] (40 uM). Further, the “Burkin Assay in Myotubes, α7 integrin LacZ reporter signal relative to DMSO” value in assay [2] (0.5 uM) is 0.9844; in assay [2] (1 uM), 1.177; in assay [2] (5 uM), 0.7783; in assay [2] (10 uM) it was 0.987; in assay [2] (20 uM) it was 1.049; in assay [2] (40 uM), 1.116. Further, the “CMV-LACZ in Myotubes, signal relative to DMSO” value in assay [3] (setting [4]) was 0.906; in assay [3] (setting [5]), 0.9679; in assay [3] (setting [6]), 0.8847; in assay [3] (setting [7]), 1.046.
